Tests used:
[1] = system: COLO 201; experiment: Induction of apoptosis in human COLO201 cells assessed as early apoptotic cells at 0.2 uM by Annexin V-FITC and PI staining based flow cytometry analysis (reference value: 3.2%); format: functional
[2] = system: COLO 201; experiment: Induction of apoptosis in human COLO201 cells assessed as late apoptotic cells at 2 uM by Annexin V-FITC and PI staining based flow cytometry analysis (reference value: 6.2%); format: functional
[3] = system: COLO 201; experiment: Induction of apoptosis in human COLO201 cells assessed as viable cells at 2 uM by Annexin V-FITC and PI staining based flow cytometry analysis (reference value: 90%); format: functional; conditions: read-out: Activity
[4] = system: COLO 201; experiment: Induction of apoptosis in human COLO201 cells assessed as viable cells at 0.2 uM by Annexin V-FITC and PI staining based flow cytometry analysis ( Rvb = 90%); format: functional; conditions: read-out: Activity
[5] = system: COLO 201; experiment: Induction of apoptosis in human COLO201 cells assessed as necrotic cells at 0.2 uM by Annexin V-FITC and PI staining based flow cytometry analysis (reference value: 0.7%); format: functional
[6] = system: COLO 201; experiment: Induction of apoptosis in human COLO201 cells assessed as early apoptotic cells at 2 uM by Annexin V-FITC and PI staining based flow cytometry analysis (reference value: 3.2%); format: functional
[7] = system: COLO 201; experiment: Induction of apoptosis in human COLO201 cells assessed as viable cells at 1 uM by Annexin V-FITC and PI staining based flow cytometry analysis (reference value: 90%); format: functional; conditions: read-out: Activity
[8] = system: COLO 201; experiment: Induction of apoptosis in human COLO201 cells assessed as necrotic cells at 1 uM by Annexin V-FITC and PI staining based flow cytometry analysis (reference value: 0.7%); format: functional
[9] = system: COLO 201; experiment: Induction of apoptosis in human COLO201 cells assessed as necrotic cells at 10 uM by Annexin V-FITC and PI staining based flow cytometry analysis (reference value: 0.7%); format: functional
[10] = system: COLO 201; experiment: Induction of apoptosis in human COLO201 cells assessed as early apoptotic cells at 1 uM by Annexin V-FITC and PI staining based flow cytometry analysis (reference value: 3.2%); format: functional
[11] = system: COLO 201; experiment: Induction of apoptosis in human COLO201 cells assessed as viable cells at 10 uM by Annexin V-FITC and PI staining based flow cytometry analysis (reference value: 90%); format: functional; conditions: read-out: Activity
[12] = molecular target: T1, Tyrosine-protein kinase Lck (Homo sapiens, UniProt P06239); experiment: Inhibition of recombinant human LCK (64 to 509 residues) incubated for 60 mins in presence of ATP by HTRF method
T1 sequence (P06239 whole entry, the tested form may be a part): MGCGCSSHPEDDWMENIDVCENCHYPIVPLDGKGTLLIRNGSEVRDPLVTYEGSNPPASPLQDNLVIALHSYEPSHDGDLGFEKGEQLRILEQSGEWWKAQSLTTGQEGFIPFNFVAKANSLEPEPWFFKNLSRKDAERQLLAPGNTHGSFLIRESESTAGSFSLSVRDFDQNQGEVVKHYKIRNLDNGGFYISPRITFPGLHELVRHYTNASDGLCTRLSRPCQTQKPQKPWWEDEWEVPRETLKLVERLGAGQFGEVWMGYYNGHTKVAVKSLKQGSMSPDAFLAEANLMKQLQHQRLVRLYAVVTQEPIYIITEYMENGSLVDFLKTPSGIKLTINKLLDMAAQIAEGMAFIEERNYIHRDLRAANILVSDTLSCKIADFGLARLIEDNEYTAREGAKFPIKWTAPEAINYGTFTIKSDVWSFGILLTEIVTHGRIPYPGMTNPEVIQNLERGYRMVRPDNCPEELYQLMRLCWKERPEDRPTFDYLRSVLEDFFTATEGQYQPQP

[13] = system: COLO 201; experiment: Induction of apoptosis in human COLO201 cells assessed as necrotic cells at 2 uM by Annexin V-FITC and PI staining based flow cytometry analysis (reference value: 0.7%); format: functional
[14] = system: COLO 201; experiment: Induction of apoptosis in human COLO201 cells assessed as early apoptotic cells at 10 uM by Annexin V-FITC and PI staining based flow cytometry analysis (reference value: 3.2%); format: functional
[15] = system: COLO 201; experiment: Induction of apoptosis in human COLO201 cells assessed as late apoptotic cells at 1 uM by Annexin V-FITC and PI staining based flow cytometry analysis (reference value: 6.2%); format: functional
[16] = molecular target: T1, Tyrosine-protein kinase Lck; experiment: Inhibition of LCK (unknown origin)
[17] = system: COLO 201; experiment: Induction of apoptosis in human COLO201 cells assessed as late apoptotic cells at 10 uM by Annexin V-FITC and PI staining based flow cytometry analysis (reference value: 6.2%); format: functional
[18] = system: COLO 201; experiment: Induction of apoptosis in human COLO201 cells assessed as late apoptotic cells at 0.2 uM by Annexin V-FITC and PI staining based flow cytometry analysis (reference value: 6.2%); format: functional
[19] = system: UO-31; experiment: Antiproliferative activity against human UO-31 cells; format: functional
[20] = system: PC-3; experiment: Antiproliferative activity against human PC-3 cells; format: functional
[21] = system: EKVX; experiment: Antiproliferative activity against human EKVX cells; format: functional
[22] = system: SN12C; experiment: Antiproliferative activity against human SN12C cells; format: functional
[23] = system: MOLT-4; experiment: Antiproliferative activity against human MOLT-4 cells; format: functional
[24] = system: NCI/ADR-RES; experiment: Antiproliferative activity against human NCI/ADR-RES cells; format: functional
[25] = system: ACHN; experiment: Antiproliferative activity against human ACHN cells; format: functional
[26] = system: OVCAR-8; experiment: Antiproliferative activity against human OVCAR-8 cells; format: functional
[27] = system: CAKI-1; experiment: Antiproliferative activity against human CAKI-1 cells; format: functional
[28] = system: SNB-19; experiment: Antiproliferative activity against human SNB-19 cells; format: functional
[29] = system: HOP-92; experiment: Antiproliferative activity against human HOP-92 cells; format: functional
[30] = system: IGROV-1; experiment: Antiproliferative activity against human IGROV-1 cells; format: functional
[31] = system: MDA-MB-435; experiment: Antiproliferative activity against human MDA-MB-435 cells; format: functional
[32] = system: NCI-H226; experiment: Antiproliferative activity against human NCI-H226 cells; format: functional
[33] = system: 786-0; experiment: Antiproliferative activity against human 786-0 cells; format: functional
[34] = system: COLO 201; experiment: Induction of apoptosis in human COLO201 cells assessed as increase in cleaved PARP level by Western blotting analysis; format: functional, cell-based; conditions: dose 1-10 µM
[35] = system: A498; experiment: Antiproliferative activity against human A498 cells; format: functional
[36] = system: NCI-H460; experiment: Antiproliferative activity against human NCI-H460 cells; format: functional
[37] = system: MDA-MB-231; experiment: Antiproliferative activity against human MDA-MB-231 cells; format: functional
[38] = system: HOP-62; experiment: Antiproliferative activity against human HOP-62 cells; format: functional
[39] = system: M14; experiment: Antiproliferative activity against human M14 cells; format: functional
[40] = system: NCI-H23; experiment: Antiproliferative activity against human NCI-H23 cells; format: functional
[41] = system: RXF 393; experiment: Antiproliferative activity against human RXF 393 cells; format: functional
[42] = system: HL-60(TB); experiment: Antiproliferative activity against human HL-60(TB) cells; format: functional
[43] = system: COLO 205; experiment: Antiproliferative activity against human COLO 205 cells; format: functional
[44] = system: K562; experiment: Antiproliferative activity against human K562 cells; format: functional
[45] = system: OVCAR-5; experiment: Antiproliferative activity against human OVCAR-5 cells; format: functional
[46] = system: SK-MEL-28; experiment: Antiproliferative activity against human SK-MEL-28 cells; format: functional
[47] = system: KM12; experiment: Antiproliferative activity against human KM12 cells; format: functional
[48] = system: HCT-116; experiment: Antiproliferative activity against human HCT-116 cells; format: functional
[49] = system: LOX IMVI; experiment: Antiproliferative activity against human LOX IMVI cells; format: functional
[50] = system: SK-MEL-2; experiment: Antiproliferative activity against human SK-MEL-2 cells; format: functional
[51] = system: HT-29; experiment: Antiproliferative activity against human HT-29 cells; format: functional
[52] = system: SW-620; experiment: Antiproliferative activity against human SW620 cells; format: functional
[53] = Antiproliferative activity against human […] cells; format: functional
[54] = system: TK-10; experiment: Antiproliferative activity against human TK-10 cells; format: functional
[55] = system: HCT-15; experiment: Antiproliferative activity against human HCT-15 cells; format: functional
[56] = system: SNB-75; experiment: Antiproliferative activity against human SNB-75 cells; format: functional
[57] = system: Malme-3M; experiment: Antiproliferative activity against human Malme-3M cells; format: functional
[58] = system: Hs-578T; experiment: Antiproliferative activity against human Hs-578T cells; format: functional
[59] = system: DU-145; experiment: Antiproliferative activity against human DU-145 cells; format: functional
[60] = system: SF-268; experiment: Antiproliferative activity against human SF-268 cells; format: functional
[61] = system: MCF7; experiment: Antiproliferative activity against human MCF7 cells; format: functional
[62] = system: MDA-MB-468; experiment: Antiproliferative activity against human MDA-MB-468 cells; format: functional
[63] = system: SK-OV-3; experiment: Antiproliferative activity against human SK-OV-3 cells; format: functional
[64] = system: HCC 2998; experiment: Antiproliferative activity against human HCC 2998 cells; format: functional
[65] = system: A549; experiment: Antiproliferative activity against human A549 cells; format: functional
[66] = system: T47D; experiment: Antiproliferative activity against human T47D cells; format: functional
[67] = system: U-251; experiment: Antiproliferative activity against human U-251 cells; format: functional
[68] = system: OVCAR-3; experiment: Antiproliferative activity against human OVCAR-3 cells; format: functional
[69] = system: NCI-H522; experiment: Antiproliferative activity against human NCI-H522 cells; format: functional
[70] = system: SR; experiment: Antiproliferative activity against human SR cells; format: functional
[71] = system: BT-549; experiment: Antiproliferative activity against human BT-549 cells; format: functional
[72] = system: UACC-257; experiment: Antiproliferative activity against human UACC-257 cells; format: functional
[73] = system: COLO 201; experiment: Antiproliferative activity against human COLO201 cells; format: functional

SMILES: COc1cc(-c2nn(C3CCC(N4CCN(C(C)=O)CC4)CC3)c3ncnc(N)c23)ccc1NC(=O)c1cc2ccccc2n1C (stereo unspecified)
- Activity [1]: 2.5%
- Activity [2]: 8.5%
- viability at 2 µM [3]: 82.6%
- viability at 0.2 µM [4]: 92.6%
- Activity [5]: 0.6%
- Activity [6]: 7.1%
- viability at 1 µM [7]: 88.7%
- Activity [8]: 1.2%
- Activity [9]: 3.8%
- Activity [10]: 3.4%
- viability at 10 µM [11]: 26.6%
- IC50 [12]: 147 nM
- Activity [13]: 1.8%
- Activity [14]: 16.9%
- Activity [15]: 6.6%
- IC50 [16]: 147 nM
- Activity [17]: 52.7%
- Activity [18]: 4.3%

SMILES: Cc1ccc(Nc2ncc3c(n2)N(C)C(=O)N(c2cc(NC(=O)c4ccc([N+](=O)[O-])c(OCC(C)C)c4)ccc2C)C3)cn1
- GI50 [19]: 270 nM
- Activity [1]: 5.6%
- GI50 [20]: 790 nM
- GI50 [21]: 980 nM
- GI50 [22]: 170 nM
- GI50 [23]: 430 nM
- GI50 [24]: 3530 nM
- GI50 [25]: 150 nM
- GI50 [26]: 410 nM
- GI50 [27]: 60 nM
- GI50 [28]: 3920 nM
- GI50 [29]: 90 nM
- GI50 [30]: 210 nM
- GI50 [31]: 250 nM
- GI50 [32]: 410 nM
- GI50 [33]: 450 nM
- Activity [34]: Dose-Dependent Effect
- GI50 [35]: 220 nM
- viability at 2 µM [3]: 57.1%
- viability at 0.2 µM [4]: 80.9%
- Activity [5]: 1.8%
- Activity [6]: 17%
- viability at 1 µM [7]: 61.3%
- GI50 [36]: 430 nM
- GI50 [37]: 130 nM
- GI50 [38]: 1130 nM
- GI50 [39]: 160 nM
- GI50 [40]: 499 nM
- GI50 [41]: 94 nM
- Activity [8]: 4.6%
- GI50 [42]: 230 nM
- GI50 [43]: 240 nM
- GI50 [44]: 10 nM
- GI50 [45]: 540 nM
- Activity [9]: 7.4%
- GI50 [46]: 240 nM
- GI50 [47]: 740 nM
- GI50 [48]: 330 nM
- GI50 [49]: 200 nM
- GI50 [50]: 92 nM
- Activity [10]: 13.9%
- GI50 [51]: 410 nM
- GI50 [52]: 520 nM
- GI50 [53]: 480 nM
- viability at 10 µM [11]: 54.4%
- GI50 [54]: 390 nM
- GI50 [55]: 410 nM
- GI50 [56]: 290 nM
- GI50 [57]: 200 nM
- GI50 [58]: 280 nM
- GI50 [59]: 400 nM
- GI50 [60]: 490 nM
- GI50 [61]: 8330 nM
- GI50 [62]: 380 nM
- GI50 [63]: 190 nM
- Activity [13]: 5.2%
- GI50 [64]: 1100 nM
- GI50 [65]: 430 nM
- Activity [14]: 13.3%
- GI50 [66]: 700 nM
- GI50 [67]: 550 nM
- GI50 [68]: 1090 nM
- GI50 [69]: 300 nM
- GI50 [70]: 180 nM
- GI50 [71]: 1370 nM
- GI50 [72]: 670 nM
- GI50 [73]: 1260 nM
- Activity [18]: 11.7%

— ChEMBL document CHEMBL5579802, “Identification of 3,4-dihydropyrimido[4,5-d]pyrimidin-2(1H)-one scaffolds as potent Lck inhibitors as anti-cancer agents” (Bioorg Med Chem Lett, 2024)
